Earlier results in US20100022600A1, “METHODS AND COMPOSITIONS FOR TREATING CENTRAL NERVOUS SYSTEM TUMORS” (priority 2006, published 2010).

Experiments:
[1] = tested on: BT4Cn rat glioma cells; conditions: Carcinogenesis 2001; 22: 1747-55; cited from earlier work
[2] = tested on: acyl-CoA synthetase; conditions: PPARγ-independent; J Biol Chem 2001; 276: 33736-40; cited from earlier work
[3] = tested on: cholesterol biosynthesis; conditions: PPARγ-independent; Diabetes 1999; 48: 254-60; cited from earlier work
[4] = tested on: C6 cells; conditions: J Neurochem 2002; 81: 1052-60; cited from earlier work

## O=C(Nc1ccccc1)c1cc([N+](=O)[O-])ccc1Cl [GW9662]
[1]
  effect on growth inhibition by PPARγ agonists: abolished

## Cc1c(C)c2c(c(C)c1O)CCC(C)(COc1ccc(CC3SC(=O)NC3=O)cc1)O2 (single isomer, unassigned; (+)) [troglitazone, (+)-5 [[4-[(3,4-dihydro-6-hydroxy-2,5,7,8-tetramethyl-2H-1-benzopyran-2-yl)methoxy]phenyl]methyl]-2,4thiazolidinedione]
[2]
  acyl-CoA synthetase: inhibit
[3]
  cholesterol biosynthesis: inhibit

## CC1(COc2ccc(CC3SC(=O)NC3=O)cc2)CCCCC1 (stereo not shown) [ciglitazone, 5-[4-[(1-methylcyclohexyl)methoxy]benzyl]thiazolidine-2,4-dione]
[4]
  redifferentiation of C6 cells: increased redifferentiation
